In PubChem BioAssay (NCI):
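Growth conditions: 96-well plates. Treatment: test compound, 48 hours, 5 concentrations. Analysis: linear interpolation between bracketing concentrations; unreached endpoints set to highest concentration. The concentration for full growth arrest is given as TGI.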

Tests used:
Test in all cases: NCI-60 cell line screen, 48 h
786-0 renal = system: 786-0 renal
A498 renal = system: A498 renal
A549 NSCLC = system: A549 NSCLC
ACHN renal = system: ACHN renal
CAKI-1 renal = system: CAKI-1 renal
CCRF-CEM leukemia = system: CCRF-CEM leukemia
COLO 205 colon = system: COLO 205 colon
DLD-1 colon = system: DLD-1 colon
DMS 114 small cell lung = system: DMS 114 small cell lung
DMS 273 small cell lung = system: DMS 273 small cell lung
EKVX NSCLC = system: EKVX NSCLC
HCC-2998 colon = system: HCC-2998 colon
HCT-116 colon = system: HCT-116 colon
HCT-15 colon = system: HCT-15 colon
HL-60(TB) leukemia = system: HL-60(TB) leukemia
HOP-18 NSCLC = system: HOP-18 NSCLC
HOP-62 NSCLC = system: HOP-62 NSCLC
HOP-92 NSCLC = system: HOP-92 NSCLC
HT29 colon = system: HT29 colon
IGROV1 ovarian = system: IGROV1 ovarian
K-562 leukemia = system: K-562 leukemia
KM12 colon = system: KM12 colon
KM20L2 colon = system: KM20L2 colon
LOX IMVI melanoma = system: LOX IMVI melanoma
M14 melanoma = system: M14 melanoma
M19-MEL melanoma = system: M19-MEL melanoma
MALME-3M melanoma = system: MALME-3M melanoma
MOLT-4 leukemia = system: MOLT-4 leukemia
NCI-H226 lung = system: NCI-H226 lung
NCI-H23 lung = system: NCI-H23 lung
NCI-H460 lung = system: NCI-H460 lung
NCI-H522 lung = system: NCI-H522 lung
OVCAR-3 ovarian = system: OVCAR-3 ovarian
OVCAR-4 ovarian = system: OVCAR-4 ovarian
OVCAR-5 ovarian = system: OVCAR-5 ovarian
OVCAR-8 ovarian = system: OVCAR-8 ovarian
RPMI-8226 leukemia = system: RPMI-8226 leukemia
RXF-631 renal = system: RXF-631 renal
SF-268 CNS = system: SF-268 CNS
SF-295 CNS = system: SF-295 CNS
SF-539 CNS = system: SF-539 CNS
SK-MEL-2 melanoma = system: SK-MEL-2 melanoma
SK-MEL-28 melanoma = system: SK-MEL-28 melanoma
SK-OV-3 ovarian = system: SK-OV-3 ovarian
SN12C renal = system: SN12C renal
SNB-19 CNS = system: SNB-19 CNS
SNB-78 CNS = system: SNB-78 CNS
SW-620 colon = system: SW-620 colon
TK-10 renal = system: TK-10 renal
U251 CNS = system: U251 CNS
UACC-257 melanoma = system: UACC-257 melanoma
UACC-62 melanoma = system: UACC-62 melanoma
UO-31 renal = system: UO-31 renal
XF 498 CNS = system: XF 498 CNS
LXFL 529 NSCLC = system: LXFL 529 NSCLC
RXF 393 renal = system: RXF 393 renal
SK-MEL-5 melanoma = system: SK-MEL-5 melanoma
SNB-75 CNS = system: SNB-75 CNS
SR leukemia = system: SR leukemia

Measured: TGI

COC(=O)C1=C(C)N(NC(N)=O)C2(N)N(NC(N)=O)C(C)=C(C(=O)OC)C12C#N (configuration not stated)
> 100 µM: 786-0 renal | A498 renal | A549 NSCLC | ACHN renal | CAKI-1 renal | CCRF-CEM leukemia | COLO 205 colon | DLD-1 colon | DMS 114 small cell lung | DMS 273 small cell lung | EKVX NSCLC | HCC-2998 colon | HCT-116 colon | HCT-15 colon | HL-60(TB) leukemia | HOP-18 NSCLC | HOP-62 NSCLC | HOP-92 NSCLC | HT29 colon | IGROV1 ovarian | K-562 leukemia | KM12 colon | KM20L2 colon | LOX IMVI melanoma | M14 melanoma | M19-MEL melanoma | MALME-3M melanoma | MOLT-4 leukemia | NCI-H226 lung | NCI-H23 lung | NCI-H460 lung | NCI-H522 lung | OVCAR-3 ovarian | OVCAR-4 ovarian | OVCAR-5 ovarian | OVCAR-8 ovarian | RPMI-8226 leukemia | RXF-631 renal | SF-268 CNS | SF-295 CNS | SF-539 CNS | SK-MEL-2 melanoma | SK-MEL-28 melanoma | SK-OV-3 ovarian | SN12C renal | SNB-19 CNS | SNB-78 CNS | SW-620 colon | TK-10 renal | U251 CNS | UACC-257 melanoma | UACC-62 melanoma | UO-31 renal | XF 498 CNS

C/C(=C\CNc1ncnc2c1ncn2C1CCCCO1)COP(=O)(O)O (configuration not stated)
> 100 µM: 786-0 renal | A549 NSCLC | ACHN renal | CAKI-1 renal | CCRF-CEM leukemia | COLO 205 colon | DLD-1 colon | DMS 114 small cell lung | DMS 273 small cell lung | EKVX NSCLC | HCC-2998 colon | HCT-116 colon | HCT-15 colon | HL-60(TB) leukemia | HOP-18 NSCLC | HOP-62 NSCLC | HOP-92 NSCLC | HT29 colon | IGROV1 ovarian | K-562 leukemia | KM12 colon | KM20L2 colon | LOX IMVI melanoma | LXFL 529 NSCLC | M14 melanoma | M19-MEL melanoma | MALME-3M melanoma | MOLT-4 leukemia | NCI-H226 lung | NCI-H23 lung | NCI-H460 lung | NCI-H522 lung | OVCAR-3 ovarian | OVCAR-4 ovarian | OVCAR-5 ovarian | OVCAR-8 ovarian | RPMI-8226 leukemia | RXF 393 renal | RXF-631 renal | SF-268 CNS | SF-295 CNS | SF-539 CNS | SK-MEL-2 melanoma | SK-MEL-28 melanoma | SK-MEL-5 melanoma | SK-OV-3 ovarian | SN12C renal | SNB-19 CNS | SNB-75 CNS | SNB-78 CNS | SR leukemia | SW-620 colon | TK-10 renal | U251 CNS | UACC-257 melanoma | UACC-62 melanoma | UO-31 renal | XF 498 CNS

[N-]=[N+]=NC1(Cc2ccccc2)C(=O)Nc2ccccc2C1=O (configuration not stated)
> 100 µM: 786-0 renal | A498 renal | A549 NSCLC | ACHN renal | CAKI-1 renal | CCRF-CEM leukemia | COLO 205 colon | DLD-1 colon | DMS 114 small cell lung | DMS 273 small cell lung | EKVX NSCLC | HCC-2998 colon | HCT-116 colon | HCT-15 colon | HL-60(TB) leukemia | HOP-18 NSCLC | HOP-62 NSCLC | HOP-92 NSCLC | HT29 colon | IGROV1 ovarian | K-562 leukemia | KM12 colon | KM20L2 colon | LOX IMVI melanoma | LXFL 529 NSCLC | M14 melanoma | M19-MEL melanoma | MALME-3M melanoma | MOLT-4 leukemia | NCI-H23 lung | NCI-H460 lung | NCI-H522 lung | OVCAR-3 ovarian | OVCAR-4 ovarian | OVCAR-5 ovarian | OVCAR-8 ovarian | SF-268 CNS | SF-295 CNS | SF-539 CNS | SK-MEL-2 melanoma | SK-MEL-28 melanoma | SK-MEL-5 melanoma | SK-OV-3 ovarian | SN12C renal | SNB-19 CNS | SNB-75 CNS | SNB-78 CNS | SR leukemia | SW-620 colon | TK-10 renal | U251 CNS | UACC-257 melanoma | UACC-62 melanoma | UO-31 renal | XF 498 CNS
